Biological target: T1, Human NPY Y5 receptors (Homo sapiens, UniProt Q15761)
T1 construct: expressed in transfected cells; host or cells: CHO cells (membrane protein)
T1 sequence (Q15761 1-445): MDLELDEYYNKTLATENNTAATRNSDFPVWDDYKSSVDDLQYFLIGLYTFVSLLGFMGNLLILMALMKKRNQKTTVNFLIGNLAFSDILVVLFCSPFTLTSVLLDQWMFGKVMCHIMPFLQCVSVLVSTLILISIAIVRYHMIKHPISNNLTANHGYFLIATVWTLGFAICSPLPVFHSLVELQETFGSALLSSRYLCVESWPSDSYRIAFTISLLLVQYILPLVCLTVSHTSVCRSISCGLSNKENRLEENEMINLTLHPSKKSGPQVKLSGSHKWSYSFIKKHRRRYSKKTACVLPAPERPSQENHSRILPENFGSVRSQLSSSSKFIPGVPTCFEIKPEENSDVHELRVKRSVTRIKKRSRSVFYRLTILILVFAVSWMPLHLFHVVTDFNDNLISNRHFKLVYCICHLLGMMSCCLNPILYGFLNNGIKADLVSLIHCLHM
Experiment: NPY Receptor Binding Assay
Conditions: Human NPY Y5 receptors expressed in CHO cells; 0.1 nM 125I-peptide YY; read-out: r/h Y5 Ki
Method: NPY Receptor Binding Assay
Human NPY Y5 receptors were expressed in CHO cells. Binding assays were performed in 50 mM HEPES, pH 7.2, 2.5 mM CaCl2, 1 mM MgCl2 and 0.1% BSA containing 5-10 μg of membrane protein and 0.1 nM ^125I-peptide YY in a total volume of 200 μl. Non-specific binding was determined in the presence of 1 uM NPY. The reaction mixtures were incubated for 90 minutes at room temperature, then filtered through Millipore MAFC glass fiber filter plates which had been pre-soaked in 0.5% polyethyleneimine. The filters were washed with phosphate-buffered saline, and radioactivity was measured in a Packard TopCount scintillation counter.

Structure (SMILES)	Ki [nM]
FC(F)(F)c1cccc(-c2c[nH]c(N3CCN(c4ccccn4)CC3)n2)c1 [Example 26]	1.4
CN(c1cccc(-c2nc(-c3cccc(C(F)(F)F)c3)c[nH]2)c1)S(C)(=O)=O [Example 6A]	2.1
O=C(Nc1cccc(-c2nc(-c3cccc(C(F)(F)F)c3)c[nH]2)c1)c1ccccc1 [Example 10A]	63
FC(F)(F)c1cccc(-c2c[nH]c(-c3cccc(CN4CCCCC4)c3)n2)c1 [Example 3]	17
FC(F)(F)c1cccc(-c2c[nH]c(C3=CCN(c4ccccn4)CC3)n2)c1 [Example 19]	1.7
COC(=O)c1cccc(-c2nc(-c3cccc(C(F)(F)F)c3)c[nH]2)c1 [Example 1B]	52
CS(=O)(=O)Nc1cccc(-c2nc(-c3cccc(C(F)(F)F)c3)c[nH]2)c1 [Example 5A]	1.4
O=C(Nc1ccccc1)c1cccc(-c2nc(-c3cccc(C(F)(F)F)c3)c[nH]2)c1 [Example 2A]	315
FC(F)(F)c1cccc(-c2c[nH]c(C34CC5CC(CC(C5)C3)C4)n2)c1 [Example 1A]	3
CS(=O)(=O)N1CCC(c2nc(-c3cc(Cl)cc(Cl)c3)c[nH]2)CC1 [Example 21C]	2
